Test results as given in ChEMBL document CHEMBL5390294, “Pseudoceranoids A-J, Sesquiterpene-Based Meroterpenoids with Cytotoxicity from the Sponge Pseudoceratina purpurea” (J Nat Prod, 2023).

Columns and labels:
H69AR = assay: Cytotoxicity against human NCI-H69AR cells assessed as inhibition of cell growth by SRB assay; assay type: functional, cell-based
MDA-MB-231 = assay: Cytotoxicity against human MDA-MB-231 cells assessed as inhibition of cell growth by SRB assay; assay type: functional, cell-based
ASPC1 = assay: Cytotoxicity against human ASPC1 cells assessed as inhibition of cell growth by SRB assay; assay type: functional, cell-based
K562 = assay: Cytotoxicity against human K562 cells assessed as inhibition of cell growth by MTT assay; assay type: functional, cell-based
[1] = Cytotoxicity against human L02 cells assessed as inhibition of cell growth by SRB assay; assay type: toxicity, cell-based

Compound | IC50 (H69AR) | IC50 (MDA-MB-231) | IC50 (ASPC1) | IC50 (K562) | IC50 [1]
COC1=CC(=O)C=C(C[C@]2(C)[C@H](C)CC[C@@H]3C(C)=CCC[C@@H]32)C1=O | > 30 µM | > 30 µM | > 30 µM | > 30 µM | > 30 µM
COc1cccc2c1C(=O)c1c(O)c3c(c(O)c1C2=O)C[C@@](O)(C(=O)CO)C[C@@H]3O[C@H]1C[C@H](N)[C@H](O)[C@H](C)O1 [DOXORUBICIN] | < 1 µM | < 1 µM | < 1 µM | < 1 µM | –
COC1=CC(=O)C(O)=C(C[C@@]2(C)CC[C@]3(C)[C@@H](C)C(=O)CC[C@H]3[C@H]2C)C1=O | > 30 µM | > 30 µM | > 30 µM | 16.1 µM | 7.6 µM
COc1cc(O)cc2c1O[C@]1(C)CC[C@H]3C(C)(C)CCC[C@]3(C)[C@H]1C2 | > 30 µM | > 30 µM | > 30 µM | 14 µM | > 30 µM
C=C1CCC[C@H]2[C@@H]1CC[C@@H](C)[C@@]2(C)CC1=CC(=O)C=C(OC)C1=O | > 30 µM | > 30 µM | > 30 µM | > 30 µM | > 30 µM
COC1=CC(=O)C2=C(C[C@@H]3[C@@]4(C)CCCC(C)(C)[C@@H]4CC[C@@]23C)C1=O | > 30 µM | > 30 µM | > 30 µM | > 30 µM | > 30 µM
COC1=CC(=O)C(O)=C(C[C@@]2(C)CC[C@]3(C)C(C=O)=CCC[C@H]3[C@H]2C)C1=O | 2.85 µM | > 30 µM | > 30 µM | > 30 µM | 12.1 µM
CCCCOC1=CC(=O)C(O)=C(C[C@@]2(C)CC[C@]3(C)C(C)=CCC[C@H]3[C@H]2C)C1=O | 7.74 µM | 9.82 µM | > 30 µM | 3.01 µM | 20.3 µM
COC(=O)/C=C1/OC(=O)C(C[C@@]2(C)CC[C@]3(C)C(C)=CCC[C@H]3[C@H]2C)=C1O | > 30 µM | > 30 µM | > 30 µM | > 30 µM | > 30 µM
COC1=CC(=O)[C@@H](C[C@@]2(C)CC[C@]3(C)C(C)=CCC[C@H]3[C@H]2C)[C@H]1O | > 30 µM | > 30 µM | > 30 µM | > 30 µM | > 30 µM
COC1=CC(=O)[C@H](C[C@@]2(C)CC[C@]3(C)C(C)=CCC[C@H]3[C@H]2C)[C@H]1O | > 30 µM | > 30 µM | > 30 µM | > 30 µM | > 30 µM
